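96-well plates; 48 h exposure; 5 concentrations. Endpoints by linear interpolation between flanking doses. Not reached: highest tested concentration assigned. Abbreviation: GI50, concentration required for 50% inhibition of growth.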 The source made the active and inactive calls. Cut-off read from the data, not from the text of the source: active = GI50 up to about 1.1 µM and inactive = higher.
Columns and labels:
Assay in all cases: DTP human tumour cell line panel, 48 h
MDA-N = system: MDA-N
786-0 = system: 786-0
DMS-114 = system: DMS-114
HOP-18 = system: HOP-18
KM-20L2 = system: KM-20L2
M19-MEL = system: M19-MEL
SNB-78 = system: SNB-78
XF498 = system: XF498
RXF 631 = system: RXF 631

`c1ccc(CSC2(SCc3ccccc3)CCCC2)cc1` was tested, and the GI50 (MDA-N) was > 10 µM (inactive).

For `CC(=O)OCC1OC(n2c3c(c(-c4ccco4)c(C#N)c2=S)CCC3)C(OC(C)=O)C(OC(C)=O)C1OC(C)=O` (stereo not given), the GI50 (786-0) was 49.7 µM (inactive) and the GI50 (MDA-N) was > 100 µM (inactive).

`C[Si](C)(C)/C=C/CN1C(=O)CCC1=O` was tested, and the GI50 (DMS-114) was > 100 µM (inactive), the GI50 (HOP-18) was 40.1 µM (inactive) and the GI50 (KM-20L2) was > 100 µM (inactive). For the same compound, the GI50 (M19-MEL) was > 100 µM (inactive), the GI50 (SNB-78) was > 100 µM (inactive) and the GI50 (XF498) was > 100 µM (inactive).

With `COc1ccc2nc3cc(Cl)ccc3c(Sc3ccc(N)cc3)c2c1` the GI50 (786-0) was 6.95 µM (inactive), the GI50 (DMS-114) was 4.99 µM (inactive) and the GI50 (HOP-18) was 12.2 µM (inactive). For the same compound, the GI50 (KM-20L2) was 4.59 µM (inactive), the GI50 (M19-MEL) was 7.62 µM (inactive) and the GI50 (RXF 631) was 11 µM (inactive). For the same compound, the GI50 (SNB-78) was 12.5 µM (inactive) and the GI50 (XF498) was 14.2 µM (inactive).

For `C[C@]12CC[C@H]3[C@@H](CCC4=CC(=O)CC[C@@]43C)[C@@H]1CC[C@@H]2C(=O)COS(=O)(=O)c1ccc(Br)cc1`, the GI50 (MDA-N) was 0.379 µM (active).

`COc1c(Br)cc(CC(N)=O)c(O)c1Br` was tested, and the GI50 (DMS-114) was > 100 µM (inactive), the GI50 (HOP-18) was > 100 µM (inactive) and the GI50 (KM-20L2) was > 100 µM (inactive). The GI50 (M19-MEL) was > 100 µM (inactive), the GI50 (RXF 631) was > 100 µM (inactive) and the GI50 (SNB-78) was > 100 µM (inactive). For the same compound, the GI50 (XF498) was > 100 µM (inactive).

For `Cc1cc(C)n(C(=C(C(Cl)=C(Cl)Cl)[N+](=O)[O-])n2nc(C)cc2C)n1`, the GI50 (MDA-N) was 4.06 µM (inactive).

In the case of `CN(/N=C1\C(=O)Nc2ccccc21)c1ccccc1`, the GI50 (MDA-N) is reported as 40.6 µM (inactive).

For `Nc1n[c-](N)[n+](=O)c(N)c1NCO`, the GI50 (786-0) was > 100 µM (inactive) and the GI50 (MDA-N) was > 100 µM (inactive).

With `COc1cc(C2C(C(=O)O)=C(CO)Oc3cc4c(cc32)OCO4)cc(OC)c1O` (stereo not given) the GI50 (DMS-114) was > 100 µM (inactive), the GI50 (HOP-18) was > 100 µM (inactive) and the GI50 (KM-20L2) was > 100 µM (inactive). For the same compound, the GI50 (SNB-78) was > 100 µM (inactive).

With `Cc1cnc(/N=c2\sc(C)cn2-c2ncc(C)s2)s1` the GI50 (786-0) was > 100 µM (inactive) and the GI50 (MDA-N) was > 100 µM (inactive).

With `O=c1[nH]c(=O)n(C2CC(O)C(CO)O2)cc1C(OCC(F)(F)F)OCC(F)(F)F` (stereo not given) the GI50 (786-0) was > 100 µM (inactive), the GI50 (DMS-114) was > 100 µM (inactive) and the GI50 (KM-20L2) was > 100 µM (inactive). For the same compound, the GI50 (M19-MEL) was > 100 µM (inactive), the GI50 (RXF 631) was > 100 µM (inactive) and the GI50 (SNB-78) was > 100 µM (inactive). The GI50 (XF498) was > 100 µM (inactive).

For `ClCC1(CCl)COC1`, the GI50 (MDA-N) was > 100 µM (inactive).

For `O=C(NN1C(=O)CS(=O)(=O)C1c1ccc(Cl)c(Cl)c1)c1ccncc1` (stereo not given), the GI50 (DMS-114) was 61.2 µM (inactive), the GI50 (HOP-18) was > 100 µM (inactive) and the GI50 (KM-20L2) was > 91.4 µM (inactive). The GI50 (M19-MEL) was > 100 µM (inactive), the GI50 (SNB-78) was > 93.1 µM (inactive) and the GI50 (XF498) was > 100 µM (inactive).

For `CN(C)C(=S)/N=c1\ssc(=S)n1C`, the GI50 (786-0) was > 100 µM (inactive), the GI50 (DMS-114) was > 100 µM (inactive) and the GI50 (HOP-18) was > 100 µM (inactive). For the same compound, the GI50 (KM-20L2) was > 100 µM (inactive), the GI50 (M19-MEL) was > 100 µM (inactive) and the GI50 (RXF 631) was > 100 µM (inactive). The GI50 (SNB-78) was > 100 µM (inactive) and the GI50 (XF498) was > 100 µM (inactive).

With `O=C(O)Cc1cc(F)ccc1C(=O)O` the GI50 (786-0) was > 100 µM (inactive) and the GI50 (MDA-N) was > 100 µM (inactive).

`CC1(C)OP23(NC(=O)OC2(C(F)(F)F)c2ccccc2O3)OC1(C)C` (stereo not given) was tested, and the GI50 (DMS-114) was > 100 µM (inactive), the GI50 (HOP-18) was > 100 µM (inactive) and the GI50 (M19-MEL) was > 100 µM (inactive). For the same compound, the GI50 (SNB-78) was > 100 µM (inactive) and the GI50 (XF498) was > 100 µM (inactive).

`Cc1ccc(Nc2nc3ccccc3nc2NS(=O)(=O)c2ccc(N)cc2)cc1` was tested, and the GI50 (786-0) was 82.4 µM (inactive) and the GI50 (MDA-N) was 41.4 µM (inactive).

With `CN(C)CCNC(=O)c1cccc2ccc(-c3ccc(F)cc3)nc12` the GI50 (DMS-114) was 5.48 µM (inactive), the GI50 (HOP-18) was 17.4 µM (inactive) and the GI50 (KM-20L2) was 4.22 µM (inactive). The GI50 (M19-MEL) was 4.33 µM (inactive), the GI50 (SNB-78) was 8.85 µM (inactive) and the GI50 (XF498) was 2.94 µM (inactive).

`O=C(O)C12CCCCC1CCCC2` (stereo not given) was tested, and the GI50 (DMS-114) was > 100 µM (inactive), the GI50 (HOP-18) was > 100 µM (inactive) and the GI50 (KM-20L2) was > 100 µM (inactive). The GI50 (M19-MEL) was > 100 µM (inactive) and the GI50 (XF498) was > 100 µM (inactive).

For `c1ccc(NN/N=N/c2ccc(-c3nc4ccccc4[nH]3)cc2)cc1`, the GI50 (786-0) was 28.2 µM (inactive) and the GI50 (MDA-N) was 29.9 µM (inactive).

In the case of `C[N+](C)([O-])CCOc1cc2c(c3ccccc13)-c1ccccc1C2=O`, the GI50 (DMS-114) is reported as 7.83 µM (inactive), the GI50 (HOP-18) is reported as 29.1 µM (inactive) and the GI50 (KM-20L2) is reported as 20.1 µM (inactive). The GI50 (M19-MEL) was 15.1 µM (inactive), the GI50 (SNB-78) was 19.8 µM (inactive) and the GI50 (XF498) was 16.4 µM (inactive).
